The text below walks through data of patent publication US11795177B2, “Substituted quinoline analogs as aldehyde dehydrogenase 1A1 (ALDH1A1) inhibitors” (THE UNITED STATES OF AMERICA, AS REPRESENTED BY THE …, priority 2017, dated 2023).

Structures can show the parent of a compound that is named as a salt.

One experiment deals with T1, ALDH1A1 enzyme (Homo sapiens, UniProt P00352).
T1 sequence (P00352 1-501): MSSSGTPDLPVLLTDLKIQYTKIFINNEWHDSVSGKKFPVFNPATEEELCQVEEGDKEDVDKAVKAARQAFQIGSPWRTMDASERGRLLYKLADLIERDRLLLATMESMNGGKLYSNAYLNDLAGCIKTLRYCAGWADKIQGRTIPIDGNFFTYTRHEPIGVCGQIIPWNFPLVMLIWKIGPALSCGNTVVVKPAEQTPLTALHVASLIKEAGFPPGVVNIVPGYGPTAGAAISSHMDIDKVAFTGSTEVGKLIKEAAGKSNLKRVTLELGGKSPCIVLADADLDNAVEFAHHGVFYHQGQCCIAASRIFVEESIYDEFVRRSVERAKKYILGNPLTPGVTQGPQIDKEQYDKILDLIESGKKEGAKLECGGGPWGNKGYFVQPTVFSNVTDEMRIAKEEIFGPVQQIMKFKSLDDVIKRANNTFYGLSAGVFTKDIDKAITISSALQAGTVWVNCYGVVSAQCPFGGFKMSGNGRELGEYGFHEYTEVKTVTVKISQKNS
Kind of experiment: ALDH1A1 enzymatic assay (in vitro). The class given is biochemical. As to conditions: ALDH1A1 enzyme 20 nM, NAD+ 1 mM, propionaldehyde 80 μM; read-out: ALDH1A1 IC50. An outline of the steps:
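ALDH1A1 (20 nM final) in 100 mM HEPES pH 7.5, 0.01% Tween 20 was preincubated 15 min at RT with compound (968 pM–57.2 μM final), then started with 1 mM NAD+ and 80 μM propionaldehyde. NADH fluorescence (ex 340/em 450 nm) followed kinetically for 10 min; change normalized to no-inhibitor and no-enzyme controls for percent inhibition and curve fitting.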

In the next experiment the test system is MIA PaCa-2 cells. Kind of experiment: MIA PaCa2 cell-based assay (1,536-well high-content imaging ALDEFLUOR assay). On the set-up: species or system human. As to conditions: Homo sapiens, 0.5 h, ALDEFLUOR BAAA substrate 500 nM, 30 minutes. An outline of the steps:
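High-content ALDEFLUOR imaging readout: BAA-retaining cells in FITC channel scored against Hoechst-counted nuclei. Before imaging, MIA PaCa-2 cells seeded at 1,000 per well received final 500 nM BAAA and 0.5 nM Hoechst with compounds in 16-point series (1.4 nM to 47.8 μM), 30 min, 37° C.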

For orientation: IC50 means the concentration that inhibits the measured activity by half. As to `COc1cc2ncc(C(=O)N3CCN(S(C)(=O)=O)CC3)c(N3CCC4(CC3)OCCO4)c2cc1OC` [Example 130, (6,7-dimethoxy-4-(1,4-dioxa-8-azaspiro[4.5]decan-8-yl)quinolin-3-yl)(4-(methylsulfonyl)piperazin-1-yl)methanone], the values for the 50% inhibitory concentration (IC50) at ALDH1A1 enzyme and in the experiment on MIA PaCa-2 cells were < 500 nM and 1000 to 10000 nM, respectively.

As for `CCN(CC)C(=O)N1CCN(C(=O)c2cnc3c(F)cc(F)cc3c2N2CCC3(CC2)OCCO3)CC1` [Example 159, 4-(6,8-difluoro-4-(1,4-dioxa-8-azaspiro[4.5]decan-8-yl)quinoline-3-carbonyl)-N,N-diethylpiperazine-1-carboxamide], the concentration for half-maximal inhibition (IC50) at ALDH1A1 enzyme was < 500 nM; in the experiment with MIA PaCa-2 cells it was 1000 to 10000 nM.

Take `COc1ccc2c(N3CCC(C)(C#N)CC3)c(C(=O)N3CCN(C(=O)C4CC4)CC3)cnc2c1` [Example 101, 1-(3-(4-(cyclopropanecarbonyl)piperazine-1-carbonyl)-7-methoxyquinolin-4-yl)-4-methylpiperidine-4-carbonitrile]: the figures for the IC50 at ALDH1A1 enzyme and with MIA PaCa-2 cells were < 500 nM and 1000 to 10000 nM, respectively.

As for `CS(=O)(=O)N1CCN(C(=O)c2cnc3ccc(F)cc3c2-c2ccc(/C(C#N)=C/C3CC3)cc2)CC1` [Cpd. 357, (Z)-3-cyclopropyl-2-(4-(6-fluoro-3-(4-(methylsulfonyl)piperazine-1-carbonyl)quinolin-4-yl)phenyl)acrylonitrile], the IC50 at ALDH1A1 enzyme and in the experiment with MIA PaCa-2 cells was < 500 nM each time.

For the compound `COC1(C)CCN(c2c(C(=O)N3CCN(C(=O)C4CC4)CC3)cnc3ccc(F)cc23)CC1` [Example 61, (4-(cyclopropanecarbonyl)piperazin-1-yl)(6-fluoro-4-(4-methoxy-4-methylpiperidin-1-yl)quinolin-3-yl)methanone], the IC50 on ALDH1A1 enzyme was < 500 nM; with MIA PaCa-2 cells it was > 10000 nM.

Turning to `N#CC1(c2ccc(-c3c(C(=O)N4CCC(O)(CO)CC4)cnc4ccc(F)cc34)cc2)CC1` [Cpd. 354, 1-(4-(6-fluoro-3-(4-hydroxy-4-(hydroxymethyl)piperidine-1-carbonyl)quinolin-4-yl)phenyl)cyclopropane-1-carbonitrile], the IC50 at ALDH1A1 enzyme is < 500 nM; with MIA PaCa-2 cells, 1000 to 10000 nM.

Consider `CC1(C#N)CCN(c2c(C(=O)N3CCN(S(C)(=O)=O)C4(CC4)C3)cnc3ccc(F)cc23)CC1` [Example 230, 1-(6-fluoro-3-(4-(methylsulfonyl)-4,7-diazaspiro[2.5]octane-7-carbonyl)quinolin-4-yl)-4-methylpiperidine-4-carbonitrile], for which the results for the IC50 on ALDH1A1 enzyme and in the experiment with MIA PaCa-2 cells were < 500 nM and 1000 to 10000 nM, respectively.

For `O=C(c1cnc2ccc(F)cc2c1N1CCC2(CC1)OCCO2)N1CCN(S(=O)(=O)N2CCCC2)CC1` [Example 153, (6-fluoro-4-(1,4-dioxa-8-azaspiro[4.5]decan-8-yl)quinolin-3-yl)(4-(pyrrolidin-1-ylsulfonyl)piperazin-1-yl)methanone], the concentration for half-maximal inhibition (IC50) on ALDH1A1 enzyme was < 500 nM; with MIA PaCa-2 cells, > 10000 nM.

Turning to `N#CC1(c2ccccc2)CCN(c2c(C(=O)N3CC4(CC(O)C4)C3)cnc3ccc(F)cc23)CC1` [Cpd. 329, 1-(6-fluoro-3-(6-hydroxy-2-azaspiro[3.3]heptane-2-carbonyl)quinolin-4-yl)-4-phenylpiperidine-4-carbonitrile], the IC50 on ALDH1A1 enzyme and in the experiment on MIA PaCa-2 cells was < 500 nM each time.

For the compound `COc1cc2ncc(C(=O)N3CCN(C(=O)C4CC4)CC3)c(N3CCC(C)(C#N)CC3)c2cc1OC` [Example 109, 1-(3-(4-(cyclopropanecarbonyl)piperazine-1-carbonyl)-6,7-dimethoxyquinolin-4-yl)-4-methylpiperidine-4-carbonitrile], the IC50 was < 500 nM at ALDH1A1 enzyme and 1000 to 10000 nM in the experiment on MIA PaCa-2 cells.

On to `CC(C)C(=O)N1CCN(C(=O)c2cnc3ccc(F)cc3c2N2CCC3(CC2)OCCO3)CC1` [Example 49, 1-(4-(6-fluoro-4-(1,4-dioxa-8-azaspiro[4.5]decan-8-yl)quinoline-3-carbonyl)piperazin-1-yl)-2-methylpropan-1-one], for which the IC50 on ALDH1A1 enzyme was < 500 nM; with MIA PaCa-2 cells, > 10000 nM.

On to `CCNC(=O)N1CCN(C(=O)c2cnc3ccc(F)cc3c2N2CCC(C)(C#N)CC2)CC1` [Example 89, 4-(4-(4-cyano-4-methylpiperidin-1-yl)-6-fluoroquinoline-3-carbonyl)-N-ethylpiperazine-1-carboxamide], for which the IC50 was < 500 nM on ALDH1A1 enzyme and > 10000 nM in the experiment with MIA PaCa-2 cells.

As to `C[C@@H]1CN(C(=O)c2cnc3ccc(F)cc3c2N2CCC3(CC2)OCCO3)C[C@H](C)O1` [Example 55, ((2S*,6R*)-2,6-dimethylmorpholino)(6-fluoro-4-(1,4-dioxa-8-azaspiro[4.5]decan-8-yl)quinolin-3-yl)methanone], the IC50 at ALDH1A1 enzyme was 1000 to 10000 nM; with MIA PaCa-2 cells it was > 10000 nM.

In the case of `CS(=O)(=O)N1CCN(C(=O)c2cnc3ccc(F)cc3c2-c2ccc(CC#N)cc2)CC1` [Example 212, 2-(4-(6-fluoro-3-(4-(methylsulfonyl)piperazine-1-carbonyl)quinolin-4-yl)phenyl)acetonitrile], the IC50 is < 500 nM at ALDH1A1 enzyme and 1000 to 10000 nM with MIA PaCa-2 cells.

Turning to `COc1cc2ncc(C(=O)N3CCN(S(=O)(=O)C4CC4)CC3)c(N3CCC(C)(C#N)CC3)c2cc1OC` [Example 114, 1-(3-(4-(cyclopropylsulfonyl)piperazine-1-carbonyl)-6,7-dimethoxyquinolin-4-yl)-4-methylpiperidine-4-carbonitrile], the IC50 on ALDH1A1 enzyme is < 500 nM; in the experiment on MIA PaCa-2 cells, 1000 to 10000 nM.

`N#CC1(O)CCN(C(=O)c2cnc3ccc(F)cc3c2N2CCC(C#N)(c3ccccc3)CC2)CC1` [Cpd. 341, 1-(3-(4-cyano-4-hydroxypiperidine-1-carbonyl)-6-fluoroquinolin-4-yl)-4-phenylpiperidine-4-carbonitrile]: the IC50 at ALDH1A1 enzyme was < 500 nM; in the experiment on MIA PaCa-2 cells it was 500 to 1000 nM.

Take `CN(C)C(=O)N1CCN(C(=O)c2cnc3ccc(F)cc3c2-c2ccc(C(C)(C)C#N)cc2)CC1` [Example 263, 4-(4-(4-(2-cyanopropan-2-yl)phenyl)-6-fluoroquinoline-3-carbonyl)-N,N-dimethylpiperazine-1-carboxamide]: the IC50 at ALDH1A1 enzyme and in the experiment with MIA PaCa-2 cells was < 500 nM each time.

With `CC1(C#N)CCN(c2c(C(=O)N3CCN(C(=O)C4CC4)CC3)cnc3c(F)cc(F)cc23)CC1` [Example 125, 1-(3-(4-(cyclopropanecarbonyl)piperazine-1-carbonyl)-6,8-difluoroquinolin-4-yl)-4-methylpiperidine-4-carbonitrile], the IC50 on ALDH1A1 enzyme was < 500 nM; in the experiment on MIA PaCa-2 cells, 1000 to 10000 nM.

For the compound `CS(=O)(=O)N1CCN(C(=O)c2cnc3ccc(F)cc3c2-c2ccc(C3(CO)CC3)cc2)CC1` [Example 280, (6-fluoro-4-(4-(1-(hydroxymethyl)cyclopropyl)phenyl)quinolin-3-yl)(4-(methylsulfonyl)piperazin-1-yl)methanone], the IC50 on ALDH1A1 enzyme and in the experiment on MIA PaCa-2 cells was < 500 nM in each case.

On to `COc1ccc2ncc(C(=O)N3CCOCC3)c(N3CCC4(CC3)OCCO4)c2c1` [Example 39, (6-methoxy-4-(1,4-dioxa-8-azaspiro[4.5]decan-8-yl)quinolin-3-yl)(morpholino)methanone], for which the figures for the IC50 at ALDH1A1 enzyme and in the experiment with MIA PaCa-2 cells were 500 to 1000 nM and > 10000 nM, respectively.

Turning to `COc1ccc2ncc(C(=O)N3CCN(C(=O)C(C)C)CC3)c(N3CCC4(CC3)OCCO4)c2c1` [Example 5, 1-(4-(6-methoxy-4-(1,4-dioxa-8-azaspiro[4.5]decan-8-yl)quinoline-3-carbonyl)piperazin-1-yl)-2-methylpropan-1-one, TFA], the values for the IC50 on ALDH1A1 enzyme and in the experiment with MIA PaCa-2 cells were < 500 nM and > 10000 nM, respectively.
